# Read-outs that look alike come from different tables or passages of the source.
# Experiments:
# [1] = system: hepatitis C virus, hepatoma cell line (Huh7.5); set-up: method as in PMID 25454460; conditions: cited from earlier work
# [2] = system: A549 cell line; experiment: SRB in vitro cytotoxicity screening; type: cell-based, human; conditions: Homo sapiens, A549, isolated compounds
# Procedure: (§1) The human cell lines A549 (lung cancer) and Ca Ski (cervical cancer) were cultured as monolayer in RPMI 1640 growth media whereas HCT-116 (colon cancer) and MRC5 (human normal lung fibroblasts) was cultured in McCoy’s 5A and EMEM medium, respectively. All cells were purchased from the […] (ATCC, USA). All the media were supplemented with 10 % v/v foetal bovine serum (FBS), 100 μg/mL penicillin/streptomycin, and 50 μg/mL amphotericin B. The cells were cultured in a 5 % CO2 incubator at 37 °C.
# (§2) The monolayer cell culture was detached using accutase and the cell count was adjusted to 2.5 x10^5 -3.0 x10^5 cells/mL using medium containing feotal bovine serum. The cells were then plated into 96 wells with a cell density of 5000-7000 cells/well and then incubated for 24 h to allow adherence of cells to the base of well of the plates. The media was then removed and 200 μl of fresh media containing different concentration of various extracts or isolated compounds were added. Cisplatin was used as the positive control. The plates were incubated for 24, 48 and 72 h at 37 °C and 5 % CO2. The cytotoxicity of the extracts and isolated compounds were screened using the […] (SRB) assay. This assay was first described by Houghton in 2007 [8]. The incubation was halted by gentle addition of 50 μl ice cold 4 % trichloroacetic acid (TCA) to each well and the plates were incubated at 4 °C for 1 h. Then, the supernatant was discarded and the plates were washed with distilled water for 5 times and then air dried. SRB dye, 50 μl, (0.4 % w/v) was added into each well and the treated cells and control were incubated at room temperature for 30 min. The unbound dye was removed by rapid washing four times with 1 % acetic acid. The plates were then air dried and 100 μl of tris base (10 mM unbuffered, pH 10.5) was added and the plates were shaken at 500 rpm for 5 min to solublize the bound SRB stain. The plates were then read with an ELISA reader (Synergy H1 Hybrid) at an absorbance of 492 nm.
# [3] = system: MRC5 (human normal lung fibroblasts); experiment: SRB in vitro cytotoxicity screening (toxicity to normal cells); type: cell-based; conditions: Homo sapiens, MRC5, isolated compounds, 72 h, read-out: IC50 in μg/ml (μM) (MRC5) 72 h (converted)
# Procedure: as §1, §2
# [4] = system: A-549 tumour cell line; conditions: cited from earlier work
# [5] = system: washed rabbit platelets; set-up: method as in earlier work; conditions: cited from earlier work; for % inhibition of platelet aggregation, inducer AA: AA 100 /c109/c77; for % inhibition of platelet aggregation, inducer Col: collagen 10 /c109g/mL
# [6] = system: Hela: Human cervix epithelioid carcinoma; set-up: method as in earlier work; conditions: cited from earlier work
# [7] = system: DLD (DLD-1): Human colon adenocarcinoma; set-up: method as in earlier work; conditions: cited from earlier work
# [8] = system: Hepa: Human hepatoma; set-up: method as in earlier work; conditions: cited from earlier work
# [9] = system: cervical carcinoma (HeLa); set-up: method as in PMID 17109253; conditions: arborinine isolated from Ruta graveolens; cited from earlier work
# [10] = system: breast adenocarcinoma (MCF-7); set-up: method as in PMID 17109253; conditions: arborinine isolated from Ruta graveolens; cited from earlier work
# [11] = system: skin epidermoid carcinoma (A431); set-up: method as in PMID 17109253; conditions: arborinine isolated from Ruta graveolens; cited from earlier work
# [12] = 48 h, value in brackets, read-out: IC50 in μg/ml (μM) (A549) 48 h (converted)
# [13] = 48 h, read-out: IC50 in μg/ml (μM) (A549) 48 h (converted)
# [14] = 72 h, value in brackets, read-out: IC50 in μg/ml (μM) (A549) 72 h (converted)
# [15] = 72 h, read-out: IC50 in μg/ml (μM) (A549) 72 h (converted)
compound,measurement,setting,value
CCCCCCCCCc1cc(=O)c2ccccc2[nH]1 [pseudane IX],replication of hepatitis C virus,[1],stop the replication
"C=CC(C)(C)c1cc2cc3c(cc2oc1=O)OC(C(C)(C)OC(C)=O)C3 (stereo not drawn) [Rutamarin, rutamarin]",IC50,[2]; [12],158 µM
same,IC50,[2]; [13],56.3 ± 1.53 µg/mL
same,IC50,[2]; [14],192 µM
same,IC50,[2]; [15],68.5 ± 3.06 µg/mL
same,IC50,[3]; value in brackets,> 281 µM
same,IC50,[3],> 100 µg/mL
same,IC50 against A549 cell line,[4],1.318 µg/mL
rutamarin [Compound 4],IC50 A-549,[4],1318 µg/mL
"CC(=O)O[C@H]1C(=O)[C@@]2(C)[C@H]([C@H](OC(=O)c3ccccc3)[C@]3(O)C[C@H](OC(=O)[C@H](O)[C@@H](NC(=O)c4ccccc4)c4ccccc4)C(C)=C1C3(C)C)[C@]1(OC(C)=O)CO[C@@H]1C[C@@H]2O [Taxol, reference compound]",IC50 A-549,[4],16.6 µg/mL
"COc1cc2ccc(=O)oc2cc1O [Compound 15, scopoletin]","% inhibition of platelet aggregation, inducer AA",[5]; Conc. 100 /c109g/mL,14.7%
same,"% inhibition of platelet aggregation, inducer PAF","[5]; Conc. 100 /c109g/mL, PAF 2ng/mL",1.6%
same,"% inhibition of platelet aggregation, inducer Col",[5]; Conc. 100 /c109g/mL,3.4%
same,"% inhibition of platelet aggregation, inducer Thr","[5]; Conc. 100 /c109g/mL, thrombin 0.1 U/mL",1.5%
same,antiplatelet aggregation activity (in words),[5]; at 100 /c109g/mL,no obvious activity
same,ED50 Hela,[6],- (“-“: ED50 /c6220 /c109g/mL)
same,ED50 DLD,[7],- (“-“: ED50 /c6220 /c109g/mL)
same,ED50 Hepa,[8],- (“-“: ED50 /c6220 /c109g/mL)
"COc1cc2c(c(O)c1OC)c(=O)c1ccccc1n2C [Arborinine, arborinine]",IC50,[2]; [12],97.2 µM
same,IC50,[2]; [13],27.7 ± 0.26 µg/mL
same,IC50,[2]; [14],46 µM
same,IC50,[2]; [15],13.1 ± 0.06 µg/mL
same,IC50,[3]; value in brackets,73 µM
same,IC50,[3],20.8 ± 0.15 µg/mL
same,IC50,[9],1.84 µg/mL
same,IC50,[10],11.74 µg/mL
same,IC50,[11],12.95 µg/mL
skimmianine [Compound 7],"% inhibition of platelet aggregation, inducer AA",[5]; Conc. 20 /c109g/mL,5.4%
same,"% inhibition of platelet aggregation, inducer Col",[5]; Conc. 20 /c109g/mL,2.5%
same,"% inhibition of platelet aggregation, inducer AA",[5]; Conc. 50 /c109g/mL,13.1%
same,"% inhibition of platelet aggregation, inducer Col",[5]; Conc. 50 /c109g/mL,7.8%
same,"% inhibition of platelet aggregation, inducer AA",[5]; Conc. 100 /c109g/mL,81.5%
same,"% inhibition of platelet aggregation, inducer Col",[5]; Conc. 100 /c109g/mL,45.9%
same,ED50 Hela,[6],- (“-“: ED50 /c6220 /c109g/mL)
same,ED50 DLD,[7],- (“-“: ED50 /c6220 /c109g/mL)
same,ED50 Hepa,[8],- (“-“: ED50 /c6220 /c109g/mL)

# Source: article PMC5059921, “Chalepin: isolated from Ruta angustifolia L. Pers induces mitochondrial mediated apoptosis in lung carcinoma cells” (BMC Complementary and Alternative Medicine, 2016)
